Tests used:
human NPY Y2 receptor = target: T1, human NPY Y2 receptor (Homo sapiens, UniProt P49146); assay: Actone functional potency assay (Y2 in vitro potency, whole cell); format: cell-based
T1 construct: host or cells: HEK-293 cells that also express a cAMP-sensitive calcium channel
T1 sequence (P49146 1-381): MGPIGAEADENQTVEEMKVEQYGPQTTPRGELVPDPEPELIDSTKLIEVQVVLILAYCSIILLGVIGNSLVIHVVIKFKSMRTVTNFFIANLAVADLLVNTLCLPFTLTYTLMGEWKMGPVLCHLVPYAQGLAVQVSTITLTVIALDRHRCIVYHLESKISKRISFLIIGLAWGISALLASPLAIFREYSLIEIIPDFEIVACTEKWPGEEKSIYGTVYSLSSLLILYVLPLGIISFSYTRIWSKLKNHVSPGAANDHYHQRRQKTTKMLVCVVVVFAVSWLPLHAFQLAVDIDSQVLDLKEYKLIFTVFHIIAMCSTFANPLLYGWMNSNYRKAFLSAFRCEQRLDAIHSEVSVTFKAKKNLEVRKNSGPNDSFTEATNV
From the text: The purpose of this example is to test the activity, or potency, of the PYY compounds in vitro. The Y2 in vitro potency is the measure of the activation of the human Y2 receptor subtype in a whole cell assay.
Actone Functional Potency Assay
The Neuropeptide Y (NPY) receptors are Gi-coupled seven trans-membrane receptors that mainly signal through the cAMP dependent pathway by inhibiting adenylate cyclase activity which results in a decrease of cAMP production from ATP. The Actone assay is based on a modified calcium channel that has a selective binding for cAMP, resulting in cellular calcium influx, detected by a calcium responsive dye. In order to measure decreased levels of cAMP, as result of NPY receptor activation, the β1/β2-adrenoreceptor agonist, isoproterenol, is added to activate adenylate cyclase and increases cAMP levels in the cell. Decreased cellular calcium concentrations, reflecting a decrease of cAMP levels due to NPY receptor activation, is detected as a decrease in fluorescence from the calcium sensitive dye.

human Y1 receptor = target: T2, human Y1 receptor (Homo sapiens, UniProt P25929); assay: Scintillation proximity assay (SPA) receptor binding, Y1
T2 construct: expressed in transfected cells; host or cells: BHK-21 clone 6-482-8, IPTG-induced (membrane preparation)
T2 sequence (P25929 1-384): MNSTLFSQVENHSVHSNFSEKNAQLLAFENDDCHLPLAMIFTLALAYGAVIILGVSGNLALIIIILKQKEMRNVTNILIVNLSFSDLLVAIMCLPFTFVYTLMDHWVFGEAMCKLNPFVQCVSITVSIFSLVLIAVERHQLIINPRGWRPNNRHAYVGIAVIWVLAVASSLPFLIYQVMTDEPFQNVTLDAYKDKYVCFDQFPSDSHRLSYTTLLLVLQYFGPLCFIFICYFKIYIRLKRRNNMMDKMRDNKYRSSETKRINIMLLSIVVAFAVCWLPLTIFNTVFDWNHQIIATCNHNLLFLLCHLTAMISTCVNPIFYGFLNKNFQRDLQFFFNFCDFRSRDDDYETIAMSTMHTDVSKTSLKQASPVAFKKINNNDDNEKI
Description: (§1) The purpose of this example is to test the in vitro binding of the PYY compounds to the Y1, Y2, Y4 and Y5 receptor subtypes, respectively. The receptor binding affinity is a measure of affinity of a compound for the human Y1, Y2, Y4 and Y5 receptor subtypes, respectively.
(§2) Scintillation Proximity Assay (SPA)
(§3) NPY-Receptor Expressing Cell Lines.
(§4) All cells were cultured at +37° C. in a humidified atmosphere with 5% CO2. […] CHO-K1 cells stably expressing the human Y2 receptor (P49146, NPY2R_HUMAN, Uniprot) were cultured in DMEM F-12 with 10% FBS, 1% P/S, 150 μg/ml Hygromycin B and 10 μg/ml Puromycin antibiotic. CHO-K1 cells stably expressing the human Y4 receptor (P50391, NPY4R_HUMAN, Uniprot) were cultured in DMEM F-12 with 10% FBS, 1% P/S, 10 μg/ml Puromycin. HEK-293 cells stably expressing the human Y5 receptor (Q15761, NPY5R_HUMAN, Uniprot) were cultured in DMEM F-12 medium containing 10% FBS, 1% Penicillin-Streptomycin, 250 μg/ml G418 and 1 μg/ml puromycin.
The homogenate was centrifuged at 35000 g using an ultracentrifuge for 10 minutes at +4° C. and the supernatant was discarded and fresh homogenization buffer added. Homogenization of the pellet was repeated a total of three times.
Human Y receptor SPA binding assay were performed in white 96-well plates in a total volume of 200 μl per well.
(§5) Plates were sealed and incubated at +25° C. for 2 hours in a plate shaker set at 400 rpm and thereafter centrifuged at 1500 rpm for 10 minutes prior to reading of luminescence on a microplate scintillation and luminescence counter. […] Displacement of radioligand was measured as reduction in luminescence and IC50 values were calculated by nonlinear regression analysis of sigmoidal dose-response curves.

human Y5 receptor = target: T3, human Y5 receptor (Homo sapiens, UniProt Q15761); assay: Scintillation proximity assay (SPA) receptor binding, Y5; details: membranes of HEK-293 cells, [125I]-PYY(1-36)
T3 construct: expressed in transfected cells; host or cells: HEK-293 (membrane preparation)
T3 sequence (Q15761 1-445): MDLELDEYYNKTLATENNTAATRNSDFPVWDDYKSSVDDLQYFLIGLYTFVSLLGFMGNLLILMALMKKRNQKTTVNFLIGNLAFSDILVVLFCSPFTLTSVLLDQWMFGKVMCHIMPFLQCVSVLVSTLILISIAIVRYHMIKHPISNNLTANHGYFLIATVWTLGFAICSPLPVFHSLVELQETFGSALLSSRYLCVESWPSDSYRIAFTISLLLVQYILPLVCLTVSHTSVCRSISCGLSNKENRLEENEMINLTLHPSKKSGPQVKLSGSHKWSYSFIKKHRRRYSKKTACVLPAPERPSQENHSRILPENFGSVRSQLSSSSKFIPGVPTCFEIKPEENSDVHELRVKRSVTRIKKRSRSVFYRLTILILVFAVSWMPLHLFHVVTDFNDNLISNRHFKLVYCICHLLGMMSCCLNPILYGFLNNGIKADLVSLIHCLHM
Description: as §1, §2, §3
as §4, with “puromycin. […]” for “puromycin.”
as §5

| Compound | EC50 (human NPY Y2 receptor) | Ki (human Y1 receptor) | Ki (human Y5 receptor) |
| --- | --- | --- | --- |
| CC(C)CC(=O)N[C@@H](CCCNC(=N)N)C(=O)N1CCC[C@H]1C(=O)N[C@@H](CCC(=O)O)C(=O)N[C@@H](C)C(=O)N1CCC[C@H]1C(=O)NCC(=O)N[C@@H](CCCCNC(=O)CC[C@H](NC(=O)COCCOCCNC(=O)CC[C@H](NC(=O)CCCCCCCCCCCCCCCCC(=O)O)C(=O)O)C(=O)O)C(=O)N[C@@H](CC(=O)O)C(=O)N[C@@H](C)C(=O)N[C@@H](CO)C(=O)N1CCC[C@H]1C(=O)N[C@@H](CCC(=O)O)C(=O)N[C@@H](CCC(=O)O)C(=O)N[C@@H](CC(C)C)C(=O)N[C@@H](CCC(N)=O)C(=O)N[C@@H](CCCNC(=N)N)C(=O)N[C@@H](Cc1ccc(O)cc1)C(=O)N[C@@H](Cc1ccc(O)cc1)C(=O)N[C@@H](C)C(=O)N[C@@H](CCC(=O)O)C(=O)N[C@@H](CC(C)C)C(=O)N[C@@H](CCCNC(=N)N)C(=O)N[C@@H](Cc1c[nH]cn1)C(=O)N[C@@H](Cc1ccc(O)cc1)C(=O)N[C@@H](Cc1ccc(O)cc1)C(=O)N[C@@H](CC(N)=O)C(=O)N[C@@H](Cc1c[nH]c2ccccc12)C(=O)N[C@@H](CC(C)C)C(=O)N[C@H](C(=O)N[C@@H](CCCNC(=N)N)C(=O)N[C@@H](CCC(N)=O)C(=O)N[C@@H](CCCNC(=N)N)C(=O)N[C@@H](Cc1ccc(O)cc1)C(N)=O)[C@@H](C)O [Compound 53, N{alpha-4}-(3-Methylbutanoyl)-N{Epsilon-10}-[(4S)-4-carboxy-4-[[2-[2-[2-[[(4S)-4-carboxy-4-(17-carboxyheptadecanoylamino)butanoyl]amino]ethoxy]ethoxy]-acetyl]amino]butanoyl]-[Arg4,Lys10,Gln18,Glu23,Tyr28,Trp30,Leu31]-PYY(4-36)] | 0.77 nM | > 10000 nM | – |
| CC(C)CC(=O)N[C@@H](CCCNC(=N)N)C(=O)N1CCC[C@H]1C(=O)N[C@@H](CCC(=O)O)C(=O)N[C@@H](C)C(=O)N1CCC[C@H]1C(=O)N1CCC[C@H]1C(=O)N[C@@H](CCCCNC(=O)CC[C@H](NC(=O)COCCOCCNC(=O)CC[C@H](NC(=O)CCCCCCCCCCCCCCCCC(=O)O)C(=O)O)C(=O)O)C(=O)N[C@@H](CC(=O)O)C(=O)N[C@@H](C)C(=O)N[C@@H](CO)C(=O)N1CCC[C@H]1C(=O)N[C@@H](CCC(=O)O)C(=O)N[C@@H](CCC(=O)O)C(=O)N[C@@H](CC(C)C)C(=O)N[C@@H](CCC(N)=O)C(=O)N[C@@H](CCCNC(=N)N)C(=O)N[C@@H](Cc1ccc(O)cc1)C(=O)N[C@@H](Cc1ccc(O)cc1)C(=O)N[C@@H](C)C(=O)N[C@@H](CO)C(=O)N[C@@H](CC(C)C)C(=O)N[C@@H](CCCNC(=N)N)C(=O)N[C@@H](Cc1c[nH]cn1)C(=O)N[C@@H](Cc1ccc(O)cc1)C(=O)N[C@@H](Cc1ccc(O)cc1)C(=O)N[C@@H](CC(N)=O)C(=O)N[C@@H](Cc1c[nH]c2ccccc12)C(=O)N[C@@H](CC(C)C)C(=O)N[C@H](C(=O)N[C@@H](CCCNC(=N)N)C(=O)N[C@@H](CCC(N)=O)C(=O)N[C@@H](CCCNC(=N)N)C(=O)N[C@@H](Cc1ccc(O)cc1)C(N)=O)[C@@H](C)O [Compound 56, N{alpha-4}-(3-Methylbutanoyl)-N{Epsilon-10}-[(4S)-4-carboxy-4-[[2-[2-[2-[[(4S)-4-carboxy-4-(17-carboxyheptadecanoylamino)butanoyl]amino]ethoxy]ethoxy]-acetyl]amino]butanoyl]-[Arg4,Pro9,Lys10,Gln18,Tyr28,Trp30,Leu31]-PYY(4-36)] | – | > 10000 nM | 279 nM |
| CC(C)CC(=O)N[C@@H](CCCNC(=N)N)C(=O)N1CCC[C@H]1C(=O)N[C@@H](CCC(=O)O)C(=O)N[C@@H](C)C(=O)N1CCC[C@H]1C(=O)NCC(=O)N[C@@H](CCCCNC(=O)CC[C@H](NC(=O)COCCOCCNC(=O)CC[C@H](NC(=O)CCCCCCCCCCCCCCCCC(=O)O)C(=O)O)C(=O)O)C(=O)N[C@@H](CC(=O)O)C(=O)N[C@@H](C)C(=O)N[C@@H](CO)C(=O)N1CCC[C@H]1C(=O)N[C@@H](CCC(=O)O)C(=O)N[C@@H](CCC(=O)O)C(=O)N[C@@H](CC(C)C)C(=O)N[C@@H](CCC(N)=O)C(=O)N[C@@H](CCCNC(=N)N)C(=O)N[C@@H](Cc1ccc(O)cc1)C(=O)N[C@@H](Cc1ccc(O)cc1)C(=O)N[C@@H](C)C(=O)N[C@@H](CO)C(=O)N[C@@H](CC(C)C)C(=O)N[C@@H](CCCNC(=N)N)C(=O)N[C@@H](Cc1c[nH]cn1)C(=O)N[C@@H](Cc1ccc(O)cc1)C(=O)N[C@@H](Cc1ccc(O)cc1)C(=O)N[C@@H](CC(N)=O)C(=O)N[C@@H](Cc1c[nH]c2ccccc12)C(=O)N[C@@H](CC(C)C)C(=O)N[C@H](C(=O)N[C@@H](CCCNC(=N)N)C(=O)N[C@@H](CCC(N)=O)C(=O)N[C@@H](CCCNC(=N)N)C(=O)N[C@@H](Cc1ccc(O)cc1)C(N)=O)[C@@H](C)O [Compound 59, N{alpha-4}-(3-Methylbutanoyl)-N{Epsilon-10}-[(4S)-4-carboxy-4-[[2-[2-[2-[[(4S)-4-carboxy-4-(17-carboxyheptadecanoylamino)butanoyl]amino]ethoxy]ethoxy]-acetyl]amino]butanoyl]-[Arg4,Lys10,Gln18,Tyr28,Trp30,Leu31]-PYY-(4-36)] | – | > 10000 nM | 279 nM |

Reference: US10005824B2, “Selective PYY compounds and uses thereof” (Novo Nordisk A/S, priority 2015, dated 2018)
